The results in this text go back to US12059425B2, “Heterocyclic compounds and uses thereof” (Kumquat Biosciences Inc., priority 2022, dated 2024).

For one experiment, the system named is SW620 cells. The experiment in a line: Ras cellular assay, cell proliferation SW620. In kind it is cell-based. As to conditions: Homo sapiens, SW-620. The source says:
(§1) For example, this assay can be also used to assess selective growth inhibition of a mutant Ras protein relative to a wildtype, or relative to a different mutant Ras protein.

The subject of a further experiment is GP2D cells. The experiment is described as follows: Ras cellular assay, cell proliferation GP2D. In kind it is cell-based. As for the experimental part: as §1
ASPC-1 (ATCC CRL-1682), Panc-10.05 (ATCC CRL-2547), A427, GP2d cell lines or any other cell lines comprising a G12D mutation can be used to assess Ras cellular signaling in vitro, e.g., in response to a compound described herein. For example, ASPC-1 culture medium is prepared with RPMI-1640 and 10% heat-inactivated FBS. Panc-10.05 culture medium is prepared with RPMI-1640, 10 Units/mL human recombinant insulin, and 10% FBS. A427 cell culture is prepared with RPMI-1640 and 10% heat-inactivated FBS. A CellTiter-Glo (CTG) luminescent based assay (Promega) is used to assess growth of the cells, as a measurement of the ability of the compounds herein to inhibit Ras signaling in the cells. The cells (e.g., 800 per well) are seeded in their respective culture medium in standard tissue culture-treated 384-well format plates (Falcon #08-772-116) or ultra-low attachment surface 384-well format plates (S-Bio #MS-9384UZ). The day after plating, cells are treated with a dilution series (e.g., a 9 point 3-fold dilution series) of the compounds herein (e.g., approximately 40 μL final volume per well). Cell viability can be monitored (e.g., approximately 5 days later) according to the manufacturer's recommended instructions, where the CellTiter-Glo reagent is added (e.g., approximately 10 μL), vigorously mixed, covered, and placed on a plate shaker (e.g., approximately for 20 min) to ensure sufficient cell lysis prior to assessment of luminescent signal. The IC50 values are determined using the four parameter fit. The resulting IC50 value is a measurement of the ability of the test compound to reduce cell growth of Ras-driven cells (e.g., tumor cell lines) in vitro and/or in vivo.

A further experiment deals with T1, K-Ras G12D (Homo sapiens, UniProt P01116, G12D).
T1 construct: made in house; host or cells: E. coli, e.g. BL21 (DE3)
T1 sequence (P01116 1-188 isoform P01116-2 G12D): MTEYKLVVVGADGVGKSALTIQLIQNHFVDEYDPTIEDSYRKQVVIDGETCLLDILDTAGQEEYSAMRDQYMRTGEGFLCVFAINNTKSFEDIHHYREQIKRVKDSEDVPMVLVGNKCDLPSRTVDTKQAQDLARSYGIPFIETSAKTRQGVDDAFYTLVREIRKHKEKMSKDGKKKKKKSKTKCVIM
The experiment in a line: PPI-HTRF assay, K-Ras G12D / SOS1 interaction. As to conditions: HTRF, K-Ras G12D; read-out: PPI-HTRF-5 nM (K-Ras G12D IC50). The class given is biochemical. An excerpt:
(§2) This assay can be also used to assess a selective inhibition or reduction of signaling output of a mutant Ras protein relative to a wildtype, or relative to a different mutant Ras protein. For example, the equilibrium interaction of wildtype Kras or K-Ras mutant (e.g., wildtype or a mutant thereof) with SOS1 (e.g., hSOS1) can be assessed as a proxy or an indication for a subject compound's ability to bind and inhibit Ras protein. HTRF assay detects from (i) a fluorescence resonance energy transfer (FRET) donor (e.g., antiGST-Europium) that is bound to GST-tagged K-Ras mutant to (ii) a FRET acceptor (e.g., anti-6His-XL665) bound to a His-tagged hSOS1.
(§3) The assay buffer can contain ˜5 mM HEPES pH 7.4, ˜150 mM NaCl, ˜1 mM DTT, 0.05% BSA and 0.0025% (v/v) Igepal. A Ras working solution is prepared in an assay buffer containing typically a suitable amount of the protein construct (e.g., GST-tagged K-Ras mutant) and the FRET donor (e.g., antiGST-Eu(K) from Cisbio, France). A SOS1 working solution is prepared in an assay buffer containing suitable amount of the protein construct (e.g., His-hSOS1) and the FRET acceptor (e.g., anti-6His-XL665 from Cisbio, France). A suitable amount of the protein construct will depend on the range of activity or range of IC50 values being detected or under investigation. For detecting IC50 within a range of 500 nM, the protein constructs of the same range of molarity can be utilized.
(§4) A fixed volume of DMSO with or without test compound is transferred into a 384-well plate. Ras working solution is added to all wells of the test plate. SOS1 working solution is added to all wells except for those that are subsequently filled the inhibitor control solution. Upon incubation for about 10 minutes or longer, the fluorescence is measured with a M1000Pro plate reader (Tecan) using HTRF detection (excitation 337 nm, emission 1: 620 nm, emission 2: 665 nm). Compounds are tested in duplicate at different concentrations (for example, 10 μM, 2.5 μM, 0.63 μM, 0.16 μM, 0.04 μM, 0.01 μM test compound). The ratiometric data (i.e., emission 2 divided by emission 1) is used to calculate IC50 values against Ras using GraphPad Prism (GraphPad software). Following this general procedure, samples are tested with or without a subject compound disclosed herein including compounds exemplified in Table 1 to assess their abilities to inhibit a mutant K-Ras relative to another K-Ras (e.g., different mutant or wildtype). Signaling output measured in terms of IC50 values can be obtained, a ratio of IC50 against one mutant relative to another mutant can be calculated. For instance, a selective reduction of K-Ras G12D signaling output can be evidenced by a ratio greater than one. In particular, a selective reduction of K-Ras G12D signaling relative to K-Ras WT signaling is evidenced if the ratio of IC50 (against K-Ras WT) to IC50 (against K-Ras G12D) is greater than 1.
(In TR-FRET formats the signal depends on donor and acceptor labels being close together.)

In another experiment the target is T2, wildtype K-Ras (Homo sapiens, UniProt P01116).
T2 construct: made in house; host or cells: E. coli, e.g. BL21 (DE3)
T2 sequence (P01116 1-188 isoform P01116-2): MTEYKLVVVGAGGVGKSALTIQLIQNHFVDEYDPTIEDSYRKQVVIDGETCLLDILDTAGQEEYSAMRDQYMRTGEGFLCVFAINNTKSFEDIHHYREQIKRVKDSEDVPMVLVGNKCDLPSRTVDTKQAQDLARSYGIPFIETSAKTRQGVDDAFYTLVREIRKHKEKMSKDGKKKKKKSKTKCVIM
The experiment is described as follows: PPI-HTRF assay, wildtype K-Ras / SOS1 interaction. The class given is biochemical. As to conditions: HTRF, K-Ras wt; read-out: PPI-HTRF-5 nM (K-Ras wt IC50).
Excerpt: as §2, §3, §4

The target of a further experiment is T3, K-Ras G12V (Homo sapiens, UniProt P01116, G12V).
T3 construct: made in house; host or cells: E. coli, e.g. BL21 (DE3)
T3 sequence (P01116 1-188 isoform P01116-2 G12V): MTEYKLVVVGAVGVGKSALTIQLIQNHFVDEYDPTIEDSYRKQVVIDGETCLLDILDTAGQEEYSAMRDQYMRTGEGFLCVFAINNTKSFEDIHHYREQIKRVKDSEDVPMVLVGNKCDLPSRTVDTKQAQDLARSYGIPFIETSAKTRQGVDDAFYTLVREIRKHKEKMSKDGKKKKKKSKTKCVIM
The experiment in a line: PPI-HTRF assay, K-Ras G12V / SOS1 interaction. As to conditions: HTRF, K-Ras G12V; read-out: PPI-HTRF-5 nM (K-Ras G12V IC50). In kind it is biochemical.
Excerpt: as §2, §3, §4

For a further experiment, the target named is T4, K-Ras G12S (Homo sapiens, UniProt P01116, G12S).
T4 construct: made in house; host or cells: E. coli, e.g. BL21 (DE3)
T4 sequence (P01116 1-188 isoform P01116-2 G12S): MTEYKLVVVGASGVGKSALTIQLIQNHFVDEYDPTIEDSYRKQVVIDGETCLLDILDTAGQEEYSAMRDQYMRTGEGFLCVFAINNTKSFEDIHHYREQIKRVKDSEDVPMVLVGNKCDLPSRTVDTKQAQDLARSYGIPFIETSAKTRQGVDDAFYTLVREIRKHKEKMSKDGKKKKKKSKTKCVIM
The experiment is described as follows: PPI-HTRF assay, K-Ras G12S / SOS1 interaction. As to conditions: read-out: PPI-HTRF-5 nM (K-Ras G12S IC50). In kind it is biochemical.
Excerpt: as §2, §3, §4

The IC50 is the midpoint of a concentration-inhibition curve. Turning to `CC(O)C1C[C@H]2CCCN2c2nc(OC[C@@]34CCCN3C[C@H](F)C4)nc3c(F)c(-c4ccc(F)c5sc(N)c(C#N)c45)c(Cl)c(c23)O1` (single isomer, unassigned) [compound 135], the IC50 is over 5 µM in the experiment with SW620 cells and under 5 µM with GP2D cells.

As to `N#CCC1CCN2c3nc(OC[C@@]45CCCN4C[C@H](F)C5)nc4c(F)c(-c5ccc(F)c6sc(N)c(C#N)c56)c(Cl)c(c34)OCC2C1` (single isomer, unassigned) [compound 162], in the experiment with GP2D cells, the IC50 was under 5 µM.

For `N#Cc1c(N)sc2c(F)ccc(-c3c(Cl)c4c5c(nc(OCC67CCCN6C[C@H](F)C7)nc5c3F)N3CCCCC3CCO4)c12` (single isomer, unassigned) [compound 184], the IC50 on K-Ras G12D and in the experiment on GP2D cells was under 5 µM throughout.

As for `N#Cc1c(N)sc2c(F)ccc(-c3c(Cl)c4c5c(nc(OC[C@@]67CCCN6C[C@H](F)C7)nc5c3F)N3CCC(C#N)CC3CO4)c12` (single isomer, unassigned) [compound 211], the IC50 on K-Ras G12D and in the experiment on GP2D cells was under 5 µM each time.

Take `N#Cc1c(N)sc2c(F)ccc(-c3c(Cl)c4c5c(nc(OC[C@@]67CCCN6C[C@H](F)C7)nc5c3F)N3CCC[C@@H]3CC(C(F)F)O4)c12` (single isomer, unassigned) [compound 212]: the IC50 on K-Ras G12D, in the experiment on SW620 cells and in the experiment on GP2D cells was under 5 µM each time.

As for `N#Cc1c(N)sc2c(F)ccc(-c3c(Cl)c4c5c(nc(OC[C@@]67CCCN6C[C@H](F)C7)nc5c3F)N3CCC[C@@H]3CCO4)c12` [compound 183, 2-amino-4-((13aR)-10-chloro-8-fluoro-6-(((2R,7aS)-2-fluorotetrahydro-1H-pyrrolizin-7a(5H)-yl)methoxy)-1,2,3,12,13,13a-hexahydropyrrolo[1′,2′:5,6][1,5]oxazocino [4,3,2-de]quinazolin-9-yl)-7-fluorobenzo[b]thiophene-3-carbonitrile], in the experiment on GP2D cells, the IC50 was under 5 µM.

Turning to `N#Cc1c(N)sc2c(F)ccc(-c3c(Cl)c4c5c(nc(OC[C@@]67CCCN6C[C@H](F)C7)nc5c3F)N3CC5(CCN5C(=O)n5cncn5)CC3CO4)c12` (stereo partly drawn) [compound 190, 2-amino-4-(6′-chloro-4′-fluoro-2′-(((2R,7aS)-2-fluorotetrahydro-1H-pyrrolizin-7a(5H)-yl)methoxy)-1-(1H-1,2,4-triazole-1-carbonyl)-8a′,9′-dihydro-8′H,11′H-spiro[azetidine-2,10′-pyrrolo[2′,1′:3,4][1,4]oxazepino[5,6,7-de]quinazolin]-5′-yl)-7-fluorobenzo[b]thiophene-3-carbonitrile], the concentration for half-maximal inhibition (IC50) on K-Ras G12D and in the experiment on GP2D cells was under 5 µM each time.

Consider `CN1c2nc(OC[C@@]34CCCN3C[C@H](F)C4)nc3c(F)c(-c4ccc(F)c5sc(N)c(C#N)c45)c(Cl)c(c23)OCC2COCCC21` (stereo partly drawn) [compound 198, 2-amino-4-(6-chloro-4-fluoro-2-(((2R,7aS)-2-fluorotetrahydro-1H-pyrrolizin-7a(5H)-yl)methoxy)-13-methyl-8a,9,11,12,12a,13-hexahydro-8H-pyrano[4′,3′:6,7][1,5]oxazocino[4,3,2-de]quinazolin-5-yl)-7-fluorobenzo[b]thiophene-3-carbonitrile], for which the IC50 at K-Ras G12D, at wildtype K-Ras, on K-Ras G12V and on K-Ras G12S was under 5 µM in each case.

Regarding `CN1c2nc(OC[C@@]34CCCN3C[C@H](F)C4)nc3c(F)c(-c4ccc(F)c5sc(N)c(C#N)c45)c(Cl)c(c23)OCC2OCCCC21` (stereo partly drawn) [compound 199, 2-amino-4-(6-chloro-4-fluoro-2-(((2R,7aS)-2-fluorotetrahydro-1H-pyrrolizin-7a(5H)-yl)methoxy)-13-methyl-8,8a,11,12,12a,13-hexahydro-10H-pyrano[3′,2′:6,7][1,5]oxazocino[4,3,2-de]quinazolin-5-yl)-7-fluorobenzo[b]thiophene-3-carbonitrile], the IC50 at K-Ras G12D, on wildtype K-Ras, on K-Ras G12V and on K-Ras G12S was under 5 µM in each case.

`N#Cc1c(N)sc2c(F)ccc(-c3c(Cl)c4c5c(nc(OC[C@@]67CCCN6C[C@H](F)C7)nc5c3F)N(CC(F)F)C3CN(C=O)CC3O4)c12` (stereo partly drawn) [compound 201, 2-amino-4-(6-chloro-11-(2,2-difluoroethyl)-4-fluoro-2-(((2R,7aS)-2-fluorotetrahydro-1H-pyrrolizin-7a(5H)-yl)methoxy)-9-formyl-7a,8,9,10,10a,11-hexahydropyrrolo[3′,4′:2,3][1,4]oxazepino [5,6,7-de]quinazolin-5-yl)-7-fluorobenzo[b]thiophene-3-carbonitrile]: the IC50 at K-Ras G12D, on wildtype K-Ras, at K-Ras G12V and on K-Ras G12S was under 5 µM each time.

In the case of `N#Cc1c(N)sc2c(F)ccc(-c3c(Cl)c4c5c(nc(OC[C@@]67CCCN6C[C@H](F)C7)nc5c3F)N3CCC(F)(F)CC3CO4)c12` (stereo partly drawn) [compound 203, 2-amino-4-(6-chloro-4,10,10-trifluoro-2-(((2R,7aS)-2-fluorotetrahydro-1H-pyrrolizin-7a(5H)-yl)methoxy)-8,8a,9,10,11,12-hexahydropyrido[2′,1′:3,4][1,4]oxazepino [5,6,7-de]quinazolin-5-yl)-7-fluorobenzo[b]thiophene-3-carbonitrile], the IC50 at K-Ras G12D, at wildtype K-Ras, at K-Ras G12V and on K-Ras G12S was under 5 µM in each case.

For the molecule `N#Cc1c(N)sc2c(F)ccc(-c3c(Cl)c4c5c(nc(OC[C@@]67CCCN6C[C@H](F)C7)nc5c3F)N3[C@H](CO4)C[C@@H]3COC(F)F)c12` [compound 210, 2-amino-4-((8aS,10R)-6-chloro-10-((difluoromethoxy)methyl)-4-fluoro-2-(((2R,7aS)-2-fluorotetrahydro-1H-pyrrolizin-7a(5H)-yl)methoxy)-8,8a,9,10-tetrahydroazeto[2′,1′:3,4][1,4]oxazepino [5,6,7-de]quinazolin-5-yl)-7-fluorobenzo[b]thiophene-3-carbonitrile], the IC50 on K-Ras G12D, on wildtype K-Ras, at K-Ras G12V and on K-Ras G12S was over 5 µM each time.
